Assay results from paper PMC4767442 (Oncotarget, 2015).
Like-named read-outs stand apart in the source and are kept apart here. Marks after values point to notes of the source that are not given here.

Experiments:
[1] = Pharmacokinetics after single i.v. administration to rats (plasma, UHPLC-MS/MS); assay type: in vivo, Wistar rats; settings: for Cmax / Tmax / AUC(0-inf) / clearance / half-life / AUC(0-t) / Vd: male, Wistar, rat, plasma, iv; for Cmax / Tmax / AUC(0-inf) / clearance / half-life / AUC(0-t): 2 mg/kg; for AUC(0-inf): read-out: AUC (zero to infinity); for AUC(0-t): read-out: AUC0-tlast; for Vd: read-out: Vz (apparent volume of distribution); for mean plasma concentration at 6 h relative to Cmax: i.v. 2 mg·kg^−1, 6 h, DpC Group 1
Description: Male Wistar rats (230-310 g; n = 22) obtained from Velaz (Czech Republic) were kept in an air-conditioned room under a 12 h light-dark cycle, constant temperature and humidity and had free access to water and a standard laboratory pellet diet for rodents. All animal handling and procedures were approved and supervised by the Animal Welfare Body of the Faculty of Medicine in Hradec Kralove, Charles University in Prague. The investigation conformed to the Guide for the Care and Use of Laboratory Animals.
The rats were anaesthetized with pentobarbital (30 mg^.kg^−1; i.p.) and then the vena jugularis and arteria carotis were prepared for drug administration and blood sample collection, respectively. Both Dp44mT and DpC were dissolved in a mixture of saline, PEG 300 and ethanol (5:4:1, v/v/v) and administered to rats at a dose of 2 mg^.kg^−1, as a slow i.v. bolus. Blood was then collected into EDTA-containing tubes, immediately centrifuged and the plasma kept at −80°C until being analyzed. The blood withdrawn from animals was compensated with an appropriate volume of saline. The animals were sacrificed by pentobarbital overdose.
Initially, for both compounds, rats (n = 2, in each group) were used for the in-vivo investigation of the thiosemicarbazone metabolites and also the preparation of the quantitative analytical method. For the full PK study, 6 rats were used for each compound (group 1) and the blood was sampled at 4, 10, 30, 60, 120, 240 and 360 min post-administration.
Due to the markedly slower elimination of DpC, an additional in-vivo study was performed to appropriately describe the elimination phase of this drug. The conscious rats (n = 8, group 2) were administered DpC (2 mg^.kg^−1) via slow i.v. bolus to the vena saphena. Blood was sampled from the retro-orbital plexus under light ether anesthesia during the following time intervals: 120, 360, 600, 1440 and 1800 min. Plasma samples were treated and analyzed using the analytical methods described below in the Section: UHPLC-MS/MS methods for quantitative assay of the drugs and their metabolites.
Standard non-compartmental analysis was performed implementing Kinetica software (version 4.0, Thermo Fisher Scientific Inc., MA, U.S.A.). […] Maximum concentration (Cmax) and the time to maximum concentration (Tmax) were determined directly from the geometric mean vs. time profiles and from individual profiles. The area under the mean plasma concentration–time curve from zero up to the last sampling interval (AUC0-tlast) was calculated by a combination of the linear and log-linear trapezoidal methods. The area under the mean plasma concentration–time curve from zero up to infinity (AUC) was determined as the sum of the AUC0–tlast and of the extrapolated part (i.e., the ratio of the concentration predicted at the time interval of tlast and the terminal rate constant, λz). The λz was estimated by linear regression of the log transformed concentrations in the terminal part of the curve.
Population pharmacokinetic modeling was performed using non-linear, mixed effect modeling as implemented in Monolix, version 4 (http://wfn.software.monolix.org). Pharmacokinetic parameters were estimated by computing the maximum likelihood estimator of the parameters without any approximation of the model (no linearization). This was performed using the Stochastic Approximation Expectation Maximization (SAEM) algorithm combined with a Markov chain Monte Carlo procedure. The between-animal variability in model parameters were ascribed to an exponential model and a proportional model was used to describe the residual variability. The goodness-of-fit was assessed by using several diagnostic plots (observed and predicted concentrations vs. time; observed concentrations vs. population predictions; weighted residuals vs. time; and weighted residuals vs. predictions). Individual parameter values were obtained as empirical Bayes estimates. […]

[2] = tested on: HL-60 human promyelocytic leukemia cell line; test: MTT proliferation/viability assay, HL-60; assay type: cell-based; settings: 72 h/37°C, mean ± S.D.
Description: The MCF-7 human breast adenocarcinoma cell line was purchased from the European Collection of Cell Cultures (U.K.). The HL-60 human promyelocytic leukemia cell line, HCT116 human colorectal carcinoma cell line, H9c2 rat heart-derived myoblast cell line and 3T3 mouse embryo fibroblast line, were obtained from the American Type Culture Collection (VA, U.S.A.). Cells were cultured in Dulbecco's modified Eagle's medium (DMEM, Lonza, Switzerland) with or without (for MCF-7 cells only) phenol red, supplemented with 10% heat-inactivated fetal bovine serum (FBS; Lonza, Switzerland), 1% penicillin/streptomycin solution (Lonza, Switzerland) and 10 mM HEPES buffer (pH 7.0-7.6; Sigma-Aldrich, Germany). The HL-60 cell line was maintained in RPMI medium (Sigma-Aldrich, Germany) supplemented with 10% heat-inactivated FBS and 1% penicillin/streptomycin solution. All cell lines were cultured in 75 cm^2 tissue culture flasks (Switzerland) at 37°C in a humidified atmosphere of 5% CO2. Sub-confluent cells or, in the case of HL-60 cells, a cell suspension, were sub-cultured every 3-4 days.
Cells were seeded in 96-well plates for 24 h/37°C at a density of 5,000 (MCF-7), 10,000 (HL-60), 2,000 (HCT116) and 10,000 (3T3 and H9c2) cells/well. For 3T3 and H9c2 cells, the medium was changed to serum- and pyruvate-free DMEM 24 h prior to the experiments. Anti-proliferative and cytotoxicity effects of the compounds were studied at different concentrations after incubations for 72 h/37°C. Viabilities of cells were determined using MTT assays (Sigma-Aldrich, Germany) according to the manufacturer's instructions on a Tecan Infinite 200M plate reader (Tecan, Austria). The proliferation/viability of treated groups was expressed as a percentage of the untreated controls (100%).

[3] = Long-term stability in plasma samples at -80°C; assay type: in vitro ADME, rat; settings: for Long-term stability: plasma, -80°C, 7 days; for decomposition on storage (in words): up to 7 days stored at −80°C
Description: The UHPLC-MS/MS methods for quantitative assays were validated with respect to selectivity, linearity, precision, accuracy, stability, recovery, matrix effects and dilution integrity (see […]
Linearity was examined over the concentration ranges described in Supplementary Table 1 using a weighted (1/x 2) linear regression in GraphPad Prism 6 (v. 6.04, GraphPad Software […]
Stability was assessed at low, medium and high concentration levels. Long -term stability was assessed for plasma samples at -80°C over a period of 7 days (three aliquots per level; Supplementary Table 3). […]

[4] = rats, i.v. 2 mg·kg^−1, individual values, mean ± S.D., DpC Group 1 only, read-out: Cmax (observed, individual)
[5] = rats, i.v. 2 mg·kg^−1, individual values, mean ± S.D., DpC Group 1 only, read-out: Tmax (observed, individual) (converted)
[6] = rats, i.v. 2 mg·kg^−1, non-compartmental analysis of geometric mean plasma curves, Dp4mT = metabolite after Dp44mT dosing, read-out: Cmax
[7] = rats, i.v. 2 mg·kg^−1, non-compartmental analysis, Dp4mT = metabolite after Dp44mT dosing, read-out: Tmax (converted)
[8] = rats, i.v. 2 mg·kg^−1, non-compartmental analysis
[9] = rats, i.v. 2 mg·kg^−1, non-compartmental analysis, read-out: CL (total plasma clearance) (converted)
[10] = rats, i.v. 2 mg·kg^−1, non-compartmental analysis, read-out: t1/2 (elimination half-life) (converted)
[11] = rats, i.v. 2 mg·kg^−1, two-compartment population model, Bayesian estimates, mean ± S.D.
[12] = rats, i.v. 2 mg·kg^−1, two-compartment population model, Bayesian estimates, mean ± S.D., read-out: CL (total clearance) (converted)
[13] = rats, i.v. 2 mg·kg^−1, two-compartment population model, Bayesian estimates, mean ± S.D., read-out: t1/2alpha (initial distribution half-life)
[14] = rats, i.v. 2 mg·kg^−1, two-compartment population model, Bayesian estimates, mean ± S.D., read-out: t1/2beta (elimination half-life) (converted)
[15] = rats, i.v., population analysis
[16] = high concentration level (2.105-3.115 µmol·L-1)
[17] = low concentration level (0.035-0.156 µmol·L-1)
[18] = medium concentration level (0.702-1.558 µmol·L-1)

Structure (SMILES) | Cmax [1, 4] | Tmax [1, 5] | Cmax [1, 6] | Tmax [1, 7] | AUC(0-inf) [1, 8] | clearance [1, 9] | half-life [1, 10] | AUC(0-inf) [1, 11] | clearance [1, 12] | half-life [1, 13] | half-life [1, 14] | AUC(0-t) [1] | Vd [1, 8] | mean plasma concentration at 6 h relative to Cmax ([1]; rats) | lamdaz (terminal rate constant of elimination) [1, 8] | mean extrapolated AUC [1, 8] | Q (intercompartmental clearance) [1, 11] | Vc (volume of central compartment) [1, 11] | Vp (volume of peripheral compartment) [1, 11] | IC50 [2] | further results
CN(C)C(=S)NN=C(c1ccccn1)c1ccccn1 [Dp44mT, di(2-pyridyl)ketone 4,4-dimethyl-3-thiosemicarbazone] | 3.78 ± 1.33 µM | 5 min | 2.55 µM | 4 min | 1.46 µM·h | 79.7 mL/min/kg | 132 min | 1.66 ± 0.25 µM·h | 71.8 mL/min/kg | 4.3 ± 0.54 min | 102 ± 18 min | 1.34 µM·h | 15 L/kg | less than 2% | 0.318 h⁻¹ | 8% | 5.11 ± 0.66 L/h/kg | 1.02 ± 0.12 L/kg | 5.44 ± 1.70 L/kg | 2 nM | total clearance ([1]; rats, i.v. 2 mg·kg^−1, range of both analyses): 4.3-4.8 L^.h^−1.kg^−1; clearance, fold higher than DpC [1, 15]: 23 fold; dose-corrected total AUC, fold lower than DpC [1, 15]: 28 fold; terminal half-life of elimination (t1/2β), fold shorter than DpC [1, 15]: 6.3 fold; Long-term stability [3, 16]: 94.93%; Long-term stability [3, 17]: 112.56%; Long-term stability [3, 18]: 108.06%; decomposition on storage (in words) [3]: No significant decomposition
CN(C(=S)NN=C(c1ccccn1)c1ccccn1)C1CCCCC1 [DpC, di(2-pyridyl)ketone 4-cyclohexyl-4-methyl-3-thiosemicarbazone] | 5.57 ± 0.89 µM | 4 min | 5.51 µM | 4 min | 39.8 µM·h | 2.37 mL/min/kg | 810 min | 37.2 ± 16 µM·h | 3.1 mL/min/kg | 40 ± 5 min | 642 ± 240 min | 32.2 µM·h | 2.77 L/kg | 21% | 0.0515 h⁻¹ | 19% | 0.50 ± 0.11^b L·h^−1·kg^−1 | 1.05 ± 0.08 L/kg | 1.19 ± 0.68^a L·kg^−1 | 3 ± 1 nM | total exposure (AUC/dose), fold exceeding that of Dp44mT ([1]; rats, i.v.): > 20 fold; dose-corrected individual Cmax, higher than Dp44mT by ([1]; rats, i.v., p<0.01): 80%; Long-term stability [3, 16]: 112.39%; Long-term stability [3, 17]: 85.12%; Long-term stability [3, 18]: 87.76%; decomposition on storage (in words) [3]: No significant decomposition
